ChEMBL document CHEMBL1201862, “PubChem BioAssay data set” (2004)
Active and inactive are the calls of the source.

Tests used:
[1] = tested on: HEK293; test: inhibitors of LMP1-driven NF-kB reporter, dose response, cell-based, HEK293, luciferase, cherry-pick (AID 588343); assay type: functional; details: Homo sapiens
[2] = molecular target: T1, Heat shock factor protein 1 (Mus musculus, UniProt P38532); test: inhibition of MG132-induced HSE-luciferase signal, confirmation, cell-based, NIH3T3, luminescence, dose retest (AID 2382); assay type: functional;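 also: NIH3T3 fibroblasts with HSF1-driven luciferase reporter stressed by proteasome inhibitor MG132; luminescence from HSF1-driven luciferase expression after 8 hours of MG132 stress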
T1 sequence (P38532 whole entry): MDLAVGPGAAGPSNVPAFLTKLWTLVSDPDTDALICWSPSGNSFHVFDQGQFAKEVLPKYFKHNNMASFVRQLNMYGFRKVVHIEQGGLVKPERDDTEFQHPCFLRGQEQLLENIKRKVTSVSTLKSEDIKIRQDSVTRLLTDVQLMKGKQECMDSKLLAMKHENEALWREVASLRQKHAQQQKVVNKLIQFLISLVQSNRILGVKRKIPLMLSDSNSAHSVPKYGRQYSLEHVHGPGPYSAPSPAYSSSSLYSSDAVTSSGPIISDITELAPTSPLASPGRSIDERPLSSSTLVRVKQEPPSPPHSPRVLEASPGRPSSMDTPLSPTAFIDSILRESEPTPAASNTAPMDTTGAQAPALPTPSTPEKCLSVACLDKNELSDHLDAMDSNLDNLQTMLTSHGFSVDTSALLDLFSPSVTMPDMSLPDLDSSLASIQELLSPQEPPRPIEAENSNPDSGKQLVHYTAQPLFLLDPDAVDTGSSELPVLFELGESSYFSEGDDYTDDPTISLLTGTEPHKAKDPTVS

[3] = Luminescence Cell-Based Dose Response HTS to Identify Inhibitors of 5'UTR Stem-Loop Driven Prion Protein mRNA Translation in H4 Neuroglioblastoma Cells. [Related pubchem assays: 1827 (Project Summary), 1813 (Primary HTS)]; assay type: functional
[4] = inhibitors of SNCA 5'UTR-driven reporter translation, confirmation, H4 neuroglioma cells, luminescence (AID 1988); assay type: functional, cell-based
[5] = inhibitors of firefly luciferase expression or activity, dose response, H4 neuroglioma cells, luminescence (AID 1990); assay type: functional, cell-based
[6] = molecular target: T2, Endoribonuclease toxin MazF (Escherichia coli K-12, UniProt P0AE70); test: fluorescent RNA oligo signal without MazF, dose response, counter-screen for MazEF activator project, biochemical, fluorescence, single-stranded RNase substrate (AID 588502); assay type: functional
T2 sequence (P0AE70 whole entry): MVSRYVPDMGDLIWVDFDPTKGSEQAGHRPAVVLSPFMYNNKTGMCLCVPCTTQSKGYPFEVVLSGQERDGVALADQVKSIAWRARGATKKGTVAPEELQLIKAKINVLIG

[7] = molecular target: T2, Endoribonuclease toxin MazF; test: MazF toxin RNase activators, dose response, biochemical, fluorescence, single-stranded RNA substrate, uHTS hits (AID 588481); assay type: functional
[8] = P. falciparum Dd2 growth inhibitors, dose response, SYBR Green, dry powder samples (AID 1159566); assay type: functional, cell-based;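 also: potency for growth inhibition with lower SYBR green DNA signal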
[9] = HepG2 cell cytotoxicity, dose response, cytotoxicity control, plate reader, dry powder samples (AID 1159569); assay type: functional, cell-based;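 also: inhibitor potency with signal falling toward the positive control level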
[10] = P. falciparum 3D7-ScDHODH growth inhibitors, dose response, SYBR Green, dry powder samples (AID 1159570); assay type: functional, cell-based;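 also: parasite growth measured after 72 hours of compound exposure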
[11] = P. falciparum ATP4 D1247Y mutant growth inhibitors, dose response, NITD609-resistant line, SYBR Green, dry powder (AID 1159571); assay type: functional, cell-based;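 also: parasites synchronized at ring stage by sorbitol before testing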
[12] = molecular target: T3, DNA repair protein RAD52 homolog (Homo sapiens, UniProt P43351); assay type: functional, biochemical
T3 sequence (P43351 whole entry): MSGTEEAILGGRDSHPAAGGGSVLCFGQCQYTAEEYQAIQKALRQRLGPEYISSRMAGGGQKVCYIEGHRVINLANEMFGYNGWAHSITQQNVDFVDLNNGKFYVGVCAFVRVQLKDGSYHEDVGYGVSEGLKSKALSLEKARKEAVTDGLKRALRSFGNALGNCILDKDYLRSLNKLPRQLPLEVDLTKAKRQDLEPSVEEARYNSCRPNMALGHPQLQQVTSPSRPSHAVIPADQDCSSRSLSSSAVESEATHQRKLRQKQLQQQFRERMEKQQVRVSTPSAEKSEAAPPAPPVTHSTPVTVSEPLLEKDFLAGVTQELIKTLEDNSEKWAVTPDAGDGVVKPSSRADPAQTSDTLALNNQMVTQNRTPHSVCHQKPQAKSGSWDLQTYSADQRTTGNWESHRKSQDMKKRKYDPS

[13] = intracellular Trypanosoma cruzi inhibitors in host cells – cell-based, plate reader, cherry-pick samples, set 3, dose response (AID 651818); assay type: functional;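 also: compounds incubated with infected cells for about four days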
[14] = Luminescence Cell-Based Dose Retest to Confirm Inhibitors of Cancer Stem Cells. [Related pubchem assays (depositor defined):AID2717, AID2721]; assay type: functional; details: Homo sapiens
[15] = tested on: H9c2; test: cells; assay type: functional, cell-based; details: Rattus norvegicus, H9c2, Myocardium;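 also: confirmatory concentration-response retest of ultra-high-throughput screening hits for modulation of myocardial damage; cell death induced by hydrogen peroxide oxidative stress; compound pretreatment for 60 min then peroxide exposure for 2 h; potency is for protecting the cells against peroxide damage rather than for killing them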
[16] = molecular target: Mitogen-activated protein kinase 10 (Homo sapiens, UniProt P53779); test: Dose response biochemical screening assay for inhibitors of c-Jun N-Terminal Kinase 3 (JNK3). [Related pubchem assays: 746 ]
[17] = P. falciparum Dd2 growth inhibitors, dose response, SYBR Green, cherry-picked samples (AID 1159567); assay type: functional, cell-based
[18] = molecular target: Nuclear receptor subfamily 5 group A member 2 (Homo sapiens, UniProt O00482); assay type: functional, cell-based;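 also: HEK293T cells transfected with LRH-1 and a StAR promoter luciferase reporter; potency for inhibitors that lower LRH-1 driven reporter light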
[19] = StAR promoter reporter inhibition counter-screen, dose response, counter-screen for LRH-1 inverse agonist project, cell-based, luminescence, luciferase reporter (AID 651969); assay type: functional
[20] = molecular target: Steroidogenic factor 1 (Homo sapiens, UniProt Q13285); test: Counterscreen for inverse agonists of the liver receptor homolog-1 (LRH-1; NR5A2): Luminescence-based cell-based high throughput dose response assay to identify inverse agonists of the Steroidogenic Factor 1 Nuclear Receptor (SF1; NR5A1).; assay type: functional
Steroidogenic factor 1, sequence (Q13285 whole entry): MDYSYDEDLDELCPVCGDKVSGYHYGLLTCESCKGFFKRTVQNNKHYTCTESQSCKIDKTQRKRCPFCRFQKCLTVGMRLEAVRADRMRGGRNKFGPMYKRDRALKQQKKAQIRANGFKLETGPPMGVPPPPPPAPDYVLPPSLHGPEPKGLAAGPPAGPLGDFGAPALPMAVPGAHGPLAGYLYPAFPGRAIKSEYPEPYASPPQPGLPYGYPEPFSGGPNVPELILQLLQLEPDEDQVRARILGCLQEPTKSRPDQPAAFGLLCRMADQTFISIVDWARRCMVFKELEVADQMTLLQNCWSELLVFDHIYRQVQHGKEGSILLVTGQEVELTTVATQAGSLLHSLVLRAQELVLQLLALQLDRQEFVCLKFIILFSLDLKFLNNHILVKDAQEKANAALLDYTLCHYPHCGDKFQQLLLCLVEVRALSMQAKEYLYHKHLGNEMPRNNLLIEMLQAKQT

Mitogen-activated protein kinase 10, sequence (P53779 whole entry): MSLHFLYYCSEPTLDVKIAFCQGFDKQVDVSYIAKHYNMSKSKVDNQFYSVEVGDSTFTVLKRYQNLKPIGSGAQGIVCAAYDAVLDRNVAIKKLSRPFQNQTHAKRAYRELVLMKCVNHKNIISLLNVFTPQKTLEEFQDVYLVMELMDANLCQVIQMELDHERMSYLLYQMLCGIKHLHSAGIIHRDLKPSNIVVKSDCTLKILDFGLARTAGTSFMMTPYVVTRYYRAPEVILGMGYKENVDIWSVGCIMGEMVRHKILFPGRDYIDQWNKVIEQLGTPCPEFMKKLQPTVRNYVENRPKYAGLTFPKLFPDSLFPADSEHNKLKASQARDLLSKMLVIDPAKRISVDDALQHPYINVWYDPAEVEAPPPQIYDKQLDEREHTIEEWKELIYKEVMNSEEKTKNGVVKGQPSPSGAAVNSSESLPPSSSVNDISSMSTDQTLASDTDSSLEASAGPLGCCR
Nuclear receptor subfamily 5 group A member 2, sequence (O00482 whole entry): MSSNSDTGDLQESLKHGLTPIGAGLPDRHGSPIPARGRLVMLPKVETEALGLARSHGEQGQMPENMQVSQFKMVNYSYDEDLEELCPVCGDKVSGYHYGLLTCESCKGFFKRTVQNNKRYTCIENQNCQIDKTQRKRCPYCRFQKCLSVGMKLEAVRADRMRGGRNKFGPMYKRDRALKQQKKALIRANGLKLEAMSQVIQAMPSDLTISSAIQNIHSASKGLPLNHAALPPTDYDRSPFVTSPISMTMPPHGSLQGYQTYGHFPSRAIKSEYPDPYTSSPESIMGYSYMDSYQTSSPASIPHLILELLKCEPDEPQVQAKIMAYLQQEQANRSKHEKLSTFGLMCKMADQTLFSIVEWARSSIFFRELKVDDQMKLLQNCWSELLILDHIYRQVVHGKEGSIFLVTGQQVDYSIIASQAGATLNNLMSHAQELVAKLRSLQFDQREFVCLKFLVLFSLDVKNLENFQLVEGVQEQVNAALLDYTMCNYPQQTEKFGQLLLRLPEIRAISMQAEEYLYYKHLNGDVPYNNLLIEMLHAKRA

With `Cc1c(C(=O)C2=C(O)C(=O)N(CCN3CCOCC3)C2c2ccccn2)cnn1-c1ccccc1` (centres undefined) the AC50 [1] was 2.31 µM (active) and the EC50 [2] was 1.29 µM (active).

In the case of `COCCn1c(C)cc(C(=O)COC(=O)c2[nH]nc3ccccc23)c1C`, the EC50 [3] is reported as 4.02 µM (active), the AC50 [1] is reported as 2.08 µM (active) and the EC50 [4] is reported as 1.58 µM (active). For the same molecule, the EC50 [5] was 4.23 µM (inconclusive).

For `Cn1c(/C=C/c2ccccc2[N+](=O)[O-])nc2ccccc2c1=O`, the EC50 [6] was > 99 µM (inactive) and the EC50 [7] was > 99 µM (inactive).

In the case of `OC[C@@H]1[C@@H](c2ccccc2)C2(CN(Cc3ccccc3F)C2)N1Cc1ccccc1F`, the AC50 [8] is reported as 1.65 µM (active), the AC50 [9] is reported as 35.8 µM (active) and the AC50 [10] is reported as 2.31 µM (active). For the same molecule, the AC50 [11] was 1.94 µM (active).

In the case of `Cc1cc(C)c2sc(N(CCCN(C)C)C(=O)CN3C(=O)c4ccccc4C3=O)nc2c1`, the AC50 [12] is reported as 9.02 µM (active).

In the case of `COc1ccccc1Nc1nc2ccc(C)cc2cc1C#N`, the EC50 [6] is reported as 58.3 µM (inactive) and the EC50 [7] is reported as > 99 µM (inactive).

With `C[C@@H]1CCCCO[C@@H](CN(C)Cc2ccc(Cl)c(Cl)c2)[C@@H](C)CN([C@H](C)CO)C(=O)c2cc(NS(=O)(=O)c3ccc(Cl)cc3)ccc2O1` the AC50 [13] was 6.5 µM (active).

In the case of `Cc1ccc(NC(=O)c2[nH]cnc2C(=O)NCCCNC(=O)c2nc[nH]c2C(=O)Nc2ccc(C)cc2)cc1`, the AC50 [14] is reported as 3.39 µM (active) and the IC50 [15] is reported as > 79 µM (inactive).

For `CCOC(=O)C1=C(C)OC(N)=C(C#N)C1c1cc2ccccc2nc1N1CCCCC1` (centres undefined), the IC50 [16] was > 93.1 µM (not active).

With `CCOc1ccc(OCc2cccc(C(=O)N3CCCC3)c2)cc1` the AC50 [1] was 4.43 µM (active).

In the case of `C[C@@H]1CN([C@H](C)CO)C(=O)Cc2cc(NC(=O)Nc3ccc(C(F)(F)F)cc3)ccc2O[C@@H]1CN(C)Cc1ccc(C(F)(F)F)cc1`, the AC50 [13] is reported as 1.19 µM (active).

For `CCN(CC)c1ccc(C(=O)NNC(=O)CCc2nc(O)c3ccccc3n2)cc1`, the IC50 [15] was 18 µM (active).

In the case of `CO[C@H]1CN(C)C(=O)c2cc(NC(=O)C3CC3)ccc2OC[C@H](C)N(Cc2cc(F)ccc2F)C[C@H]1C`, the AC50 [8] is reported as 1.35 µM (active), the AC50 [9] is reported as 45.2 µM (active) and the AC50 [10] is reported as 4.89 µM (active). The AC50 [11] was 1.99 µM (active) and the AC50 [17] was 2.14 µM (active).

In the case of `CC(=O)c1cccc(NC(=O)Nc2ccc(C(=O)N3CCOCC3)cc2)c1`, the AC50 [1] is reported as 31.8 µM (active).

For `CC(=O)Nc1cc(Cl)c(/N=C/c2ccc(O)cc2O)cc1Cl`, the EC50 [6] was > 99 µM (inactive) and the EC50 [7] was > 99 µM (inactive).

With `COc1ccc(/C=N/NC(=O)c2cccnc2)cc1CSc1nc2ccccc2s1` the IC50 [15] was 21.2 µM (active).

With `CCc1cc(=O)oc2cc(C)cc(OCC(=O)NC3CC3)c12` the IC50 [18] was 0.292 µM (active), the IC50 [19] was 35.9 µM (inactive) and the IC50 [20] was 0.359 µM (active).
